For 14 compounds, GI50 and TGI results are on record in PubChem BioAssay (NCI).

Common to all, as to test: DTP human tumour cell line panel, 48 h
The test system of assay [1] is SF-539 CNS.
Assay [2] concerns HOP-92 NSCLC.
For assay [3], the system named is MDA-MB-231 breast.
The subject of assay [4] is ACHN renal.
Assay [5] deals with LOX IMVI melanoma.
Assay [6] has as its system HL-60(TB) leukemia.
Assay [7] relates to A549 NSCLC.
The test system of assay [8] is SF-268 CNS.
Assay [9] relates to OVCAR-4 ovarian.
Assay [10] has as its system HOP-62 NSCLC.
Assay [11] relates to SR leukemia.

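The compound was tested at five concentrations on cells cultured in 96-well plates, with a 48-hour exposure period. Here, GI50 denotes the concentration required for 50% inhibition of growth. Definition used: TGI = concentration required for complete inhibition of growth.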

As to `O=c1c2cc(C(F)(F)F)ccc2sc2c(NCCCNCCO)nc3ccccc3c12`, the GI50 was 1.6 µM in assay [1]; 1.08 µM in assay [2]; 1.28 µM in assay [3]; 1.51 µM in assay [4]; 1.35 µM in [5]. For the same compound, the TGI in assay [1] was found to be 3.03 µM; in assay [2], 2.4 µM; in assay [3], 2.63 µM; in assay [4], 2.86 µM; in assay [5] it was 2.7 µM.
Regarding `COC(=O)[C@H](Cc1c[nH]c2ccccc12)NP(=O)(OCCC#N)OCC1OC(n2cc(C)c(=O)[nH]c2=O)CC1N=[N+]=[N-]` (stereo partly drawn), the TGI in [2], in assay [6], in [7], in assay [8], in assay [3] and in [9] was > 100 µM each time. The TGI in assay [4], in assay [5] and in assay [10] was > 100 µM each time.
For the compound `O=C(COc1ccc(OCC(=O)N2C(=O)CC(=O)N(c3ccc(Cl)cc3)C2=S)cc1)N1C(=O)CC(=O)N(c2ccc(Cl)cc2)C1=S`, the TGI in assay [2] is 70.4 µM; in [7] it was > 100 µM; in [8], > 100 µM; in assay [3] it was > 100 µM; in assay [9], > 100 µM; in [4], > 100 µM.
`CC1CC[C@@]2(OC1)O[C@H]1[C@H](O)[C@H]3[C@@H]4CC[C@H]5C[C@@H](OC6OC(CO)C(OC7OC(CO)C(O)C(OC8OCC(O)C(O)C8O)C7OC7OC(CO)C(O)C(O)C7OC7OC(CO)C(O)C(O)C7O)C(O)C6O)[C@H](O)C[C@]5(C)[C@H]4CC[C@]3(C)[C@H]1[C@@H]2C` (stereo partly drawn): the TGI is > 10 µM in assay [1]; > 10 µM in [2]; 3.08 µM in [6]; > 10 µM in assay [7]; > 10 µM in [8]; 5.85 µM in [3]. Also, the TGI in assay [9], in assay [4], in assay [5] and in [10] was > 10 µM in each case.
As to `Cc1cc2[nH]c3c(C#N)c(-c4ccccc4)c(N=Nc4ccc(F)cc4)c(=O)n3c2cc1C`, the TGI in assay [1], in [7], in [8], in assay [3], in assay [9] and in assay [4] was > 100 µM each time. In addition, the TGI in assay [5] and in assay [10] was > 100 µM in each case.
Turning to `C#CC[C@@]12CC(=O)C[C@@H]1CCC1(C2)OCCO1` (tested in a mixture with another compound), the TGI in assay [1], in assay [2], in [6], in assay [7], in [8] and in assay [9] was > 100 µM throughout. The TGI in assay [5] and in assay [10] was > 100 µM each time.
Take `O=C(NNC(=S)Nc1ccccc1)c1nsc2ccccc12`: the TGI in assay [1] was 97.8 µM; in assay [2] it was 90.5 µM; in [6], 53.8 µM; in [7], > 100 µM; in assay [8] it was > 100 µM; in assay [9], > 100 µM. Moreover, the TGI is > 100 µM in assay [4], 91.1 µM in [11], > 100 µM in [5] and > 100 µM in assay [10].
For the compound `COC(=O)C1CC2(C)C=CC1N(C(=O)OCc1ccccc1)C2` (stereo not drawn), the TGI in assay [1] is > 100 µM; in assay [6], 70.7 µM; in [7] it was > 100 µM; in assay [8], > 100 µM; in [3], > 100 µM; in [9], > 100 µM. Moreover, the TGI in assay [4], in assay [11], in [5] and in assay [10] was > 100 µM each time.
With `O=C1CCCNn2c(nc3ncccc3c2=O)N1`, the TGI in assay [1], in [2], in assay [6], in assay [7], in assay [8] and in [3] was > 100 µM throughout. The TGI in assay [9], in assay [4], in [5] and in assay [10] was > 100 µM each time.
For `O=P1(N2CCOCC2)OCCO1`, the TGI in [2], in assay [6], in assay [7], in assay [8], in assay [9] and in assay [4] was > 100 µM in each case. Besides, the concentration for total growth inhibition (TGI) in [11] and in assay [5] was > 100 µM throughout.
As for `O=C(O)CCC(=O)OCN1C(=O)C2C3C=CC(C2C1=O)C1C2C(=O)N(COC(=O)CCC(=O)O)C(=O)C2C31` (stereo not drawn), the TGI is > 100 µM in assay [1]; > 100 µM in assay [2]; 46.7 µM in assay [6]; > 100 µM in [7]; > 100 µM in [8]; > 100 µM in assay [9]. In addition, the concentration for total growth inhibition (TGI) in assay [4] is > 100 µM; in [11], 52.4 µM; in [5] it was > 63 µM; in [10] it was > 100 µM.
As for `CC(C)(C)OC(=O)N/C(C=O)=C\C1CCCCC1`, the TGI in assay [1] was 87.6 µM; in [6], 65.4 µM; in assay [7], > 100 µM; in [8], 52.3 µM; in assay [3] it was 44.2 µM; in assay [9], 97.8 µM. Besides, the TGI in assay [4] was 86.4 µM; in assay [11] it was 42.8 µM; in [5] it was 29.9 µM; in assay [10] it was 58.9 µM.
Take `Cc1c(CNc2ccc(C(=O)NC(CCCNC(=O)c3ccccc3C(=O)O)C(=O)O)cc2)cnc2nc(N)nc(N)c12` (stereo not drawn): the GI50 in assay [2] is > 100 µM; in [8], 0.00161 µM; in [3], > 100 µM. The TGI in assay [6], in [7] and in [3] was > 100 µM in each case.
`O=C(CCN1CCOCC1)/C(=C/c1ccccc1)c1ccccc1`: the TGI in [1] is 9.31 µM; in assay [2], 13 µM; in assay [6] it was 4.19 µM; in assay [7], 36.6 µM; in assay [8], 19 µM; in assay [9], 23.8 µM. The TGI is 7.42 µM in [5] and 45.8 µM in [10].
